In patent publication US10669271B2, “Heterocyclic compounds as immunomodulators” (Incyte Corporation, priority 2018, dated 2020):

Columns and labels:
[1] = molecular target: PD-1/PD-L1 (Homo sapiens (Human), UniProt Q9NZQ7); test: Homogeneous Time-Resolved Fluorescence (HTRF) PD-1/PD-L1 binding assay; conditions: recombinant human PD-1 and PD-L1, 25° C., pH 7.4
Protocol: Example A. Homogeneous Time-Resolved Fluorescence (HTRF) PD-1/PD-L1 Binding Assay
The assays were conducted in a standard black 384-well polystyrene plate with a final volume of 20 μL. Inhibitors were first serially diluted in DMSO and then added to the plate wells before the addition of other reaction components. The final concentration of DMSO in the assay was 1%. The assays were carried out at 25° C. in the PBS buffer (pH 7.4) with 0.05% Tween-20 and 0.1% BSA. Recombinant human PD-L1 protein (19-238) with a His-tag at the C-terminus was purchased from AcroBiosystems (PD1-H5229). Recombinant human PD-1 protein (25-167) with Fc tag at the C-terminus was also purchased from AcroBiosystems (PD1-H5257). PD-L1 and PD-1 proteins were diluted in the assay buffer and 10 μL was added to the plate well. Plates were centrifuged and proteins were preincubated with inhibitors for 40 minutes. The incubation was followed by the addition of 10 μL of HTRF detection buffer supplemented with Europium cryptate-labeled anti-human IgG (PerkinElmer-AD0212) specific for Fc and anti-His antibody conjugated to SureLight®-Allophycocyanin (APC, PerkinElmer-AD0059H). After centrifugation, the plate was incubated at 25° C. for 60 min. before reading on a PHERAstar FS plate reader (665 nm/620 nm ratio). Final concentrations in the assay were—3 nM PD1,10 nM PD-L1, 1 nM europium anti-human IgG and 20 nM anti-His-Allophycocyanin. IC50 determination was performed by fitting the curve of percent control activity versus the log of the inhibitor concentration using the GraphPad Prism 5.0 software.

[2] = test system: U2OS/PD-L1 cells and Jurkat-PD-1-SHP cells; test: Src homology region 2 domain-containing phosphatase (SHP) assay; format: cell-based; conditions: Homo sapiens; U2OS/PD-L1 cells with Jurkat-PD-1-SHP cells, 2 hours
Protocol: Example B. Src Homology Region 2 Domain-Containing Phosphatase (SHP) Assay
U2OS/PD-L1 cells (DiscoveRx Corporation) were maintained in McCoy's 5A medium with addition of 10% FBS, 0.25 μg/ml Puromycin. After removing the culture media, the cell medium was replaced with assay medium (RPMI1640 medium with 1% FBS). The U2OS/PD-L1 cells were then added in 384-well black clear bottom assay plate (CELLCOAT® Tissue Culture Plates, Greiner Bio-One) at 5000 cells per well in 20 μL assay medium. Test compounds were prepared by serial dilution in DMSO and 125 nL compound were first transferred to the 384 REMP plate well (Thermofisher) by ECHO liquid handler (Labcyte) followed with addition of 27.5 μL assay medium. 5 μL/well compounds in the assay medium were transferred to the cell plate with 0.05% DMSO in the final assay at 0.5 μM. Jurkat-PD-1-SHP cells (DiscoveRx Corporation) were cultured in RPMI1640 medium supplemented with 10% FBS, 250 μg/ml Hygromycin B, 500 μg/ml G418. After the replacement of culture media with assay medium, 5,000 Jurkat-PD-1-SHP cells in 20 μL were dispensed into each well. The assay plate was incubated at 37° C., 5% CO2 for 2 hours before 2.5 μL PathHunter reagent 1 (DiscoveRx Corporation) were added to each well. The assay plate was shaken for 1 min at 350 rpm in the dark followed with addition of 10 μL PathHunter reagent 2 (DiscoveRx Corporation). Chemiluminescent signal was recorded with TopCount reader (Perkin Elmer) after incubation at room temperature for 1 hour. Wells with DMSO were served as the positive controls and wells containing no cells were used as negative controls. IC50 determination was performed by fitting the curve of percentage of control activity versus the log of the compound concentration using the GraphPad Prism 6.0 software.

[3] = test system: PD-L1 aAPC/CHO-K1 cells and Jurkat-PD-1-NFAT effector cells; test: Nuclear factor of activated T-cells (NFAT) assay; format: cell-based; conditions: Cricetulus griseus; PD-L1 aAPC/CHO-K1 cells with Jurkat-PD-1-NFAT effector cells, 24 hours
Protocol: Example C. Nuclear Factor of Activated T-Cells (NFAT) Assay
PD-L1 aAPC/CHO-Klcells (Promega) were maintained in F-12 medium with addition of 10% FBS, 200 μg/ml Hygromycin B, 250 μg/ml Geneticin (G418). Jurkat-PD-1-NFAT effector cells (Promega) were cultured in RPMI 1640 medium supplemented with 10% FBS, 100 μg/ml Hygromycin B, 500 μg/ml G418. The culture media of PD-L1 aAPC/CHO-K1 cells were first replaced with assay medium (RPMI1640 medium with 1% FBS). The PD-L1 aAPC/CHO-K1 cells were then added in a white 384-well white clear bottom assay plate (CELLCOAT® Tissue Culture Plates, Greiner Bio-One) at 8000 per well in 10 μL assay medium. Test compounds were prepared by serial dilution in DMSO and 0.8 μL test compounds in DMSO were first transferred to the 384 REMP plate well (Thermofisher) by PlateMate Plus (Thermofisher) followed with addition of 50 μL plating medium. 5 μL compounds in the assay medium were transferred to the cells with 0.4% DMSO in the final assay at 2 μM. After removing the culture media, 10,000 Jurkat-PD-1-NFAT effector cells in 5 μL assay medium was dispensed into each well. The assay plate was incubated at 37° C., 5% CO2 for 24 hours. After the assay plate was equilibrated to room temp for 15 minutes, 20 µL/well of Bio-Glo™ reagent (Promega) were added. After 8 minutes incubation at room temperature, luminescence was read at with Pherastar microplate reader (BMG Labtech). The fold of induction (FOI) was calculated based on the ratio of luminescence normalized to the DMSO wells within each assay plate. The maximum percentage of induction was reported based on the ratio between the highest FOI of each compound and the maximum FOI of control compound within each assay plate. Wells with DMSO were served as the negative controls and wells containing control compound with the highest FOI were used as positive controls. EC50 determination was performed by fitting the curve of percent control activity versus the log of the compound concentration using the GraphPad Prism 6.0 software.

[4] = molecular target: PD-L1 (Homo sapiens (Human), UniProt Q9NZQ7); test: PD-L1 whole blood internalization assay; format: cell-based; conditions: 1 ng/ml human interferon γ, PD-L1 expression on CD14+ cells, read-out: Whole Blood (24 HR) IC50
Protocol: Example D. PD-L1 Whole Blood Internalization Assay
To determine PD-L1 internalization in human whole blood, normal human blood (Biological Specialty Corp, Colmar. Pa.) was incubated in the presence or absence of a concentration range of test compounds and 1 ng/ml human interferon γ (R&D Systems Inc. Minn. […] Blood was then stained with PD-L1 (MIH1, eBioscience; or BD Biosciences San Jose, Calif.), CD14 (Life Technologies, Carlsbad, Calif.) for 30 minutes in the dark at room temperature. Whole Blood/red cells were lysed/fixed (lysis buffer BD Biosciences) for 5 minutes at 37° C. in the dark and then centrifuged at 1600 RPM for 5 minutes. Cells were resuspended in Stain Buffer (BD Bioscience, San Jose, Calif.) and transferred into 96 well round bottom plates (Corning). Cells were gated on CD14+(BD Biosciences) and PD-L1 expression determined by mean fluorescence intensity (MFI) (BD LSRFortessa™ X-20). IC50 determination was performed by fitting the curve of compound percent inhibition versus the log of the compound concentration using the GraphPad Prism 7.0 software.

PD-1/PD-L1, sequence (Q9NZQ7 19-238): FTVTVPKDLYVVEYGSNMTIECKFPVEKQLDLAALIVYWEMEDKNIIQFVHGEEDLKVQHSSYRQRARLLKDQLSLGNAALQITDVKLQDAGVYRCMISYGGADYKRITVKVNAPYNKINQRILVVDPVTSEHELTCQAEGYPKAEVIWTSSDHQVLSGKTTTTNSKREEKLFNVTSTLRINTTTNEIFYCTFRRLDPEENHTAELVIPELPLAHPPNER
PD-L1, sequence (Q9NZQ7 19-290): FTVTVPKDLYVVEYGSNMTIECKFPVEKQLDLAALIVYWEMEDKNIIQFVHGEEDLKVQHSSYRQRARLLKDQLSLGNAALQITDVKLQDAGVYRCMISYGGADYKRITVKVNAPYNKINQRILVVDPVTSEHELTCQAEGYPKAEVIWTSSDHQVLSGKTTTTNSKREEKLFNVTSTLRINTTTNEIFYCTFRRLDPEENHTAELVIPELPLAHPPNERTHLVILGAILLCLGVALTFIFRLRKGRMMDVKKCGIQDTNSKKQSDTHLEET

IC50 [1] | IC50 [2] | IC50 [4] | Compound | EC50 [3]
≤ 10 nM | 10 to 100 nM | 100 to 500 nM | Cc1nc(Nc2cccc(-c3cccc(-c4nc5cc(CN6CCC(C(=O)O)CC6)cc(C#N)c5o4)c3C)c2C)c2ncc(CNC[C@H](C)O)cc2n1 [Example 5, (S)-1-((7-cyano-2-(3′-(7-((2-hydroxypropylamino)methyl)-2-methylpyrido[3,2-d]pyrimidin-4-ylamino)-2,2′-dimethylbiphenyl-3-yl)benzo[d]oxazol-5-yl)methyl)piperidine-4-carboxylic Acid] | 10 to 100 nM
≤ 10 nM | ≤ 10 nM | 10 to 100 nM | Cc1c(Nc2nc(C(F)F)nc3cc(CN4CC[C@@H](O)C4)cnc23)cccc1-c1cccc(-c2nc3cc(CN4CC[C@@H](C(=O)O)C4)cc(C#N)c3o2)c1C [Example 17, (R)-1-((7-cyano-2-(3′-(2-(difluoromethyl)-7-(((R)-3-hydroxypyrrolidin-1-yl)methyl)pyrido[3,2-d]pyrimidin-4-ylamino)-2,2′-dimethylbiphenyl-3-yl)benzo[d]oxazol-5-yl)methyl)pyrrolidine-3-carboxylic Acid] | 10 to 100 nM
≤ 10 nM | ≤ 10 nM | 10 to 100 nM | Cc1nc(Nc2cccc(-c3cccc(-c4nc5cc(CN6CC[C@@H](C(=O)O)C6)cc(C#N)c5o4)c3C)c2C)c2ncc(CN3CC[C@](C)(O)C3)cc2n1 [Example 8, (R)-1-((7-cyano-2-(3′-(7-(((S)-3-hydroxy-3-methylpyrrolidin-1-yl)methyl)-2-methylpyrido[3,2-d]pyrimidin-4-ylamino)-2,2′-dimethylbiphenyl-3-yl)benzo[d]oxazol-5-yl)methyl)pyrrolidine-3-carboxylic Acid] | 10 to 100 nM
– | ≤ 10 nM | 10 to 100 nM | Cc1c(Nc2nc(C(F)(F)F)nc3cc(CN4CC[C@@H](O)C4)cnc23)cccc1-c1cccc(-c2nc3cc(CN4CC[C@@H](C(=O)O)C4)cc(C#N)c3o2)c1C [Example 20, (R)-1-((7-cyano-2-(3′-(7-(((R)-3-hydroxypyrrolidin-1-yl)methyl)-2-(trifluoromethyl)pyrido[3,2-d]pyrimidin-4-ylamino)-2,2′-dimethylbiphenyl-3-yl)benzo[d]oxazol-5-yl)methyl)pyrrolidine-3-carboxylic Acid] | 10 to 100 nM
≤ 10 nM | ≤ 10 nM | – | Cc1nc(Nc2cccc(-c3cccc(-c4nc5cc(CN6CC[C@@](C)(C(=O)O)C6)cc(C#N)c5o4)c3C)c2C)c2ncc(CNC[C@H](C)O)cc2n1 [Example 15, (R)-1-((7-cyano-2-(3′-(7-(((S)-2-hydroxypropylamino)methyl)-2-methylpyrido[3,2-d]pyrimidin-4-ylamino)-2,2′-dimethylbiphenyl-3-yl)benzo[d]oxazol-5-yl)methyl)-3-methylpyrrolidine-3-carboxylic Acid] | 10 to 100 nM
– | ≤ 10 nM | 10 to 100 nM | Cc1cc2cc(CN3CC[C@@H](O)C3)cnc2c(Nc2cccc(-c3cccc(-c4nc5cc(CN6CC[C@@H](C(=O)O)C6)cc(C#N)c5o4)c3C)c2C)n1 [Example 33, (R)-1-((7-cyano-2-(3′-(3-(((R)-3-hydroxypyrrolidin-1-yl)methyl)-6-methyl-1,7-naphthyridin-8-ylamino)-2,2′-dimethylbiphenyl-3-yl)benzo[d]oxazol-5-yl)methyl)pyrrolidine-3-carboxylic Acid] | ≤ 10 nM
– | ≤ 10 nM | 10 to 100 nM | Cc1c(Nc2nc(C(F)(F)F)nc3cc(CN4CC[C@@H](O)C4)cnc23)cccc1-c1cccc(-c2nc3cc(CN4CC[C@@](C)(C(=O)O)C4)cc(C#N)c3o2)c1C [Example 21, (R)-1-((7-cyano-2-(3′-(7-(((R)-3-hydroxypyrrolidin-1-yl)methyl)-2-(trifluoromethyl)pyrido[3,2-d]pyrimidin-4-ylamino)-2,2′-dimethylbiphenyl-3-yl)benzo[d]oxazol-5-yl)methyl)-3-methylpyrrolidine-3-carboxylic Acid] | 10 to 100 nM
≤ 10 nM | ≤ 10 nM | – | Cc1nc(Nc2cccc(-c3cccc(-c4nc5cc(CN6CC[C@@H](C(=O)O)C6)cc(C#N)c5o4)c3C)c2C)c2ncc(CN[C@@H](C)CO)cc2n1 [Example 9, (R)-1-((7-cyano-2-(3′-(7-(((S)-1-hydroxypropan-2-ylamino)methyl)-2-methylpyrido[3,2-d]pyrimidin-4-ylamino)-2,2′-dimethylbiphenyl-3-yl)benzo[d]oxazol-5-yl)methyl)pyrrolidine-3-carboxylic Acid] | 10 to 100 nM
≤ 10 nM | ≤ 10 nM | – | Cc1nc(Nc2cccc(-c3cccc(-c4nc5cc(CN6CC[C@@H](C(=O)O)C6)cc(C#N)c5o4)c3C)c2C)c2ncc(CNC[C@H](C)O)cc2n1 [Example 10, (R)-1-((7-cyano-2-(3′-(7-(((S)-2-hydroxypropylamino)methyl)-2-methylpyrido[3,2-d]pyrimidin-4-ylamino)-2,2′-dimethylbiphenyl-3-yl)benzo[d]oxazol-5-yl)methyl)pyrrolidine-3-carboxylic Acid] | 10 to 100 nM
